The target in the first assay is FXR (Homo sapiens (Human), UniProt Q96RI1). In words: transient human FXR/Gal4-luciferase reporter assay. Type of assay: cell-based.
Sequence of FXR (Q96RI1 262-486): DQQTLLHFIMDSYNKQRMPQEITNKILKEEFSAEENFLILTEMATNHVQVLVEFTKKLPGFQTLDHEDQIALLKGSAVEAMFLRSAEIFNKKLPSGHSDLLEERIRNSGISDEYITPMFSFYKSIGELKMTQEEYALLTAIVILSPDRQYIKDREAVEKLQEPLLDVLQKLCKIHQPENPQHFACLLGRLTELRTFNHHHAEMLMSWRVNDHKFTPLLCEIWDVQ
Conditions: not given
In short, it runs like this: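 Compound exposure ran overnight at 37 °C and activity was measured as luminescence with Steady-Glo reagent. The cells were a HEK293 line stably expressing firefly luciferase under five Gal4 response elements. They were transiently transfected, one night beforehand, with a plasmid encoding Gal4 DNA-binding domain fused to the human FXR ligand-binding domain.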
Background: Reporter assays use an easily measured gene product as a stand-in for the process of interest.
On to `O=C(C1CC(F)(F)C1)N(CC12CCC(c3nc(C4CC4)no3)(CC1)CC2)c1cccc(-c2nc3cc(F)ccc3o2)c1` [Example 560, N-((4-(3-cyclopropyl-1,2,4-oxadiazol-5-yl)bicyclo[2.2.2]octan-1-yl)methyl)-3,3-difluoro-N-(3-(5-fluorobenzo[d]oxazol-2-yl)phenyl)cyclobutane-1-carboxamide], for which the EC50 (commonly the concentration needed to bring the measured effect to its halfway point) amounted to 1510 nM.
Take `Cc1nc2ccc(-c3cccc(N(CC45CCC(c6nnc(C7CC7)o6)(CC4)CC5)C(=O)C4CC(C(F)F)C4)c3)cc2s1` (centres unmarked) [Example 562, N-((4-(5-cyclopropyl-1,3,4-oxadiazol-2-yl)bicyclo[2.2.2]octan-1-yl)methyl)-3-(difluoromethyl)-N-(3-(2-methylbenzo[d]thiazol-6-yl)phenyl)cyclobutane-1-carboxamide]: the EC50 was 318 nM.
Still for that read-out and setting: next, `Cc1nc2ccc(-c3cccc(N(CC45CCC(c6nnc(C7CC7)o6)(CC4)CC5)C(=O)C4CCC(F)(F)C4)c3)cc2s1` (centres unmarked) [Example 563, N-((4-(5-cyclopropyl-1,3,4-oxadiazol-2-yl)bicyclo[2.2.2]octan-1-yl)methyl)-3,3-difluoro-N-(3-(2-methylbenzo[d]thiazol-6-yl)phenyl)cyclopentane-1-carboxamide]: 154 nM; `Cc1nc2ccc(-c3cccc(N(CC45CCC(c6nc(C7CC7)no6)(CC4)OC5)C(=O)C4CC(F)(F)C4)c3)cc2s1` [Example 565, N-((1-(3-cyclopropyl-1,2,4-oxadiazol-5-yl)-2-oxabicyclo[2.2.2]octan-4-yl)methyl)-3,3-difluoro-N-(3-(2-methylbenzo[d]thiazol-6-yl)phenyl)cyclobutane-1-carboxamide]: 947 nM.
The same measure, in the same setting: with `Cc1nc2ccc(-c3cccc(N(CC45CCC(c6nc(C7CC7)no6)(CC4)OC5)C(=O)C4CC(C(F)F)C4)c3)cc2s1` (centres unmarked) [Example 566, N-((1-(3-cyclopropyl-1,2,4-oxadiazol-5-yl)-2-oxabicyclo[2.2.2]octan-4-yl)methyl)-3-(difluoromethyl)-N-(3-(2-methylbenzo[d]thiazol-6-yl)phenyl)cyclobutane-1-carboxamide] the figure was 922 nM.
For `Cc1nc2ccc(-c3cccc(N(CC45CCC(c6nc(C7CC7)no6)(CC4)OC5)C(=O)C4CCC(F)(F)C4)c3)cc2s1` (centres unmarked) [Example 567, N-((1-(3-cyclopropyl-1,2,4-oxadiazol-5-yl)-2-oxabicyclo[2.2.2]octan-4-yl)methyl)-3,3-difluoro-N-(3-(2-methylbenzo[d]thiazol-6-yl)phenyl)cyclopentane-1-carboxamide], the EC50 is 432 nM.

Staying with this assay, now noted: Gal4-hFXR fusion construct, HEK293 reporter cells; response relative to 8 μM GW-4064.
Regarding `O=C(N(CC12CCC(c3nc(C4CC4)no3)(CC1)CC2)c1cccc(-c2nc3cc(F)ccc3o2)c1)C12CC(F)(C1)C2` [Example 559, N-((4-(3-Cyclopropyl-1,2,4-oxadiazol-5-yl)bicyclo[2.2.2]octan-1-yl)methyl)-3-fluoro-N-(3-(5-fluorobenzo[d]oxazol-2-yl)phenyl)bicyclo[1.1.1]pentane-1-carboxamide], the EC50 amounted to 217 nM.
The compound `Cc1nc2ccc(-c3cccc(N(CC45CCC(c6nnc(C7CC7)o6)(CC4)CC5)C(=O)C45CC(F)(C4)C5)c3)cc2s1` [Example 561, N-((4-(5-cyclopropyl-1,3,4-oxadiazol-2-yl)bicyclo[2.2.2]octan-1-yl)methyl)-3-fluoro-N-(3-(2-methylbenzo[d]thiazol-6-yl)phenyl)bicyclo[1.1.1]pentane-1-carboxamide] gave an EC50 of 58 nM.
On the same count and under the same terms, next, `Cc1nc2ccc(-c3cccc(N(CC45CCC(c6nc(C7CC7)no6)(CC4)OC5)C(=O)C45CC(F)(C4)C5)c3)cc2s1` [Example 564, N-((1-(3-cyclopropyl-1,2,4-oxadiazol-5-yl)-2-oxabicyclo[2.2.2]octan-4-yl)methyl)-3-fluoro-N-(3-(2-methylbenzo[d]thiazol-6-yl)phenyl)bicyclo[1.1.1]pentane-1-carboxamide]: 207 nM.
The same measure, in the same setting: with `Cc1nc2ccc(-c3cccc(N(CC45CCC(c6ccc(C#N)cc6)(CC4)OC5)C(=O)C45CC(F)(C4)C5)c3)cc2s1` [Example 568, N-((1-(4-Cyanophenyl)-2-oxabicyclo[2.2.2]octan-4-yl)methyl)-3-fluoro-N-(3-(2-methylbenzo[d]thiazol-6-yl)phenyl)bicyclo[1.1.1]pentane-1-carboxamide] the figure was 2440 nM; with `Cc1nc2ccc(-c3cccc(N(CC45CCC(c6ccc(C(=O)N(C)C)cc6)(CC4)OC5)C(=O)C45CC(F)(C4)C5)c3)cc2s1` [Example 569, N-((1-(4-(dimethylcarbamoyl)phenyl)-2-oxabicyclo[2.2.2]octan-4-yl)methyl)-3-fluoro-N-(3-(2-methylbenzo[d]thiazol-6-yl)phenyl)bicyclo[1.1.1]pentane-1-carboxamide], 2220 nM; with `COc1cc(-c2cccc(N(CC34CCC(C(=O)NC5CC5)(CC3)CC4)C(=O)C34CC(F)(C3)C4)c2)ccn1` [Example 570, N-cyclopropyl-4-((3-fluoro-N-(3-(2-methoxypyridin-4-yl)phenyl)bicyclo[1.1.1]pentane-1-carboxamido)methyl)bicyclo[2.2.2]octane-1-carboxamide], 926 nM.
Still for that read-out and setting: next, `CC(F)(F)c1nc(C23CCC(CN(C(=O)C45CC(F)(C4)C5)c4cccc(C5CC5)c4)(CC2)CC3)no1` [Example 571, N-(3-cyclopropylphenyl)-N-((4-(5-(1,1-difluoroethyl)-1,2,4-oxadiazol-3-yl)bicyclo[2.2.2]octan-1-yl)methyl)-3-fluorobicyclo[1.1.1]pentane-1-carboxamide]: 47 nM.
As to `O=C(N(CC12CCC(c3noc(C(F)(F)F)n3)(CC1)CC2)c1cccc(C2CC2)c1)C12CC(F)(C1)C2` [Example 572, N-(3-cyclopropylphenyl)-3-fluoro-N-((4-(5-(trifluoromethyl)-1,2,4-oxadiazol-3-yl)bicyclo[2.2.2]octan-1-yl)methyl)bicyclo[1.1.1]pentane-1-carboxamide], the EC50 came to 146 nM.
Still for that read-out and setting: with `O=C(N(CC12CCC(c3noc(C4(F)CC4)n3)(CC1)CC2)c1cccc(C2CC2)c1)C12CC(F)(C1)C2` [Example 573, N-(3-cyclopropylphenyl)-3-fluoro-N-((4-(5-(1-fluorocyclopropyl)-1,2,4-oxadiazol-3-yl)bicyclo[2.2.2]octan-1-yl)methyl)bicyclo[1.1.1]pentane-1-carboxamide] the figure was 44 nM; with `CC(F)(F)c1nc(C23CCC(CN(C(=O)C45CC(F)(C4)C5)c4ccc(F)c(C5CC5)c4)(CC2)CC3)no1` [Example 574, N-(3-cyclopropyl-4-fluorophenyl)-N-((4-(5-(1,1-difluoroethyl)-1,2,4-oxadiazol-3-yl)bicyclo[2.2.2]octan-1-yl)methyl)-3-fluorobicyclo[1.1.1]pentane-1-carboxamide], 244 nM; with `CC(F)(F)c1nc(C23CCC(CN(C(=O)C45CC(F)(C4)C5)c4ccc(F)c(N5CCC5)c4)(CC2)CC3)no1` [Example 575, N-(3-(azetidin-1-yl)-4-fluorophenyl)-N-((4-(5-(1,1-difluoroethyl)-1,2,4-oxadiazol-3-yl)bicyclo[2.2.2]octan-1-yl)methyl)-3-fluorobicyclo[1.1.1]pentane-1-carboxamide], 410 nM.
Consider `CC(C)(O)c1ccc(-c2cccc(N(C[C@]34CC[C@](c5noc(C(C)(C)F)n5)(CC3)CC4)C(=O)C3CC(O)(C(F)(F)F)C3)c2)cc1` (stereo partly drawn) [Example 576, (cis)-N-((4-(5-(2-fluoropropan-2-yl)-1,2,4-oxadiazol-3-yl)bicyclo[2.2.2]octan-1-yl)methyl)-3-hydroxy-N-(4′-(2-hydroxypropan-2-yl)-[1,1′-biphenyl]-3-yl)-3-(trifluoromethyl)cyclobutane-1-carboxamide], for which the EC50 was 19 nM.
Same read-out and setting: next, `CC(C)(O)c1ccc(-c2cccc(N(CC34CCC(c5noc(C(C)(C)F)n5)(CC3)CC4)C(=O)[C@H]3C[C@@](C)(O)C3)c2)cc1` [Example 577, (cis)-N-((4-(5-(2-fluoropropan-2-yl)-1,2,4-oxadiazol-3-yl)bicyclo[2.2.2]octan-1-yl)methyl)-3-hydroxy-N-(4′-(2-hydroxypropan-2-yl)-[1,1′-biphenyl]-3-yl)-3-methylcyclobutane-1-carboxamide]: 23 nM; `N#CC1(c2ccc(-c3cccc(N(CC45CCC(c6noc(C7(F)CC7)n6)(CC4)CC5)C(=O)[C@H]4C[C@](O)(C(F)(F)F)C4)c3)cc2F)CC1` [Example 578, (cis)-N-(4′-(1-cyanocyclopropyl)-3′-fluoro-[1,1′-biphenyl]-3-yl)-N-((4-(5-(1-fluorocyclopropyl)-1,2,4-oxadiazol-3-yl)bicyclo[2.2.2]octan-1-yl)methyl)-3-hydroxy-3-(trifluoromethyl)cyclobutane-1-carboxamide]: 92 nM; `O=C(N(CC12CCC(c3noc(C4(F)CC4)n3)(CC1)CC2)c1cccc(-c2cnc(C3CC3)nc2)c1)C12CC(F)(C1)C2` [Example 579, N-(3-(2-cyclopropylpyrimidin-5-yl)phenyl)-3-fluoro-N-((4-(5-(1-fluorocyclopropyl)-1,2,4-oxadiazol-3-yl)bicyclo[2.2.2]octan-1-yl)methyl)bicyclo[1.1.1]pentane-1-carboxamide]: 45 nM.
Still for that read-out and setting: next, `O=C(N(CC12CCC(c3noc(C(F)(F)F)n3)(CC1)CC2)c1cccc(-c2cnc(C3CC3)nc2)c1)C12CC(F)(C1)C2` [Example 580, N-(3-(2-cyclopropylpyrimidin-5-yl)phenyl)-3-fluoro-N-((4-(5-(trifluoromethyl)-1,2,4-oxadiazol-3-yl)bicyclo[2.2.2]octan-1-yl)methyl)bicyclo[1.1.1]pentane-1-carboxamide]: 160 nM; `CC(C)Oc1ccc(-c2cc(N(CC34CCC(c5noc(C6(F)CC6)n5)(CC3)CC4)C(=O)[C@H]3C[C@](O)(C(F)(F)F)C3)ccc2F)cc1` [Example 581, (cis)-N-(6-fluoro-4′-isopropoxy-[1,1′-biphenyl]-3-yl)-N-((4-(5-(1-fluorocyclopropyl)-1,2,4-oxadiazol-3-yl)bicyclo[2.2.2]octan-1-yl)methyl)-3-hydroxy-3-(trifluoromethyl)cyclobutane-1-carboxamide]: 74 nM.

Values taken from patent US11254663B2 (BRISTOL-MYERS SQUIBB COMPANY, priority 2019, dated 2022).
